# Laboratory results taken from patent US12686855B2, “Generation of pancreatic endoderm from stem cell derived definitive endoderm” (ASPECT BIOSYSTEMS LTD., priority 2019, dated 2026).
# What was measured:
# [1] = biological target: T1, RARα (Homo sapiens, UniProt P10276); conditions: cited from earlier work
# T1 sequence (P10276 1-462): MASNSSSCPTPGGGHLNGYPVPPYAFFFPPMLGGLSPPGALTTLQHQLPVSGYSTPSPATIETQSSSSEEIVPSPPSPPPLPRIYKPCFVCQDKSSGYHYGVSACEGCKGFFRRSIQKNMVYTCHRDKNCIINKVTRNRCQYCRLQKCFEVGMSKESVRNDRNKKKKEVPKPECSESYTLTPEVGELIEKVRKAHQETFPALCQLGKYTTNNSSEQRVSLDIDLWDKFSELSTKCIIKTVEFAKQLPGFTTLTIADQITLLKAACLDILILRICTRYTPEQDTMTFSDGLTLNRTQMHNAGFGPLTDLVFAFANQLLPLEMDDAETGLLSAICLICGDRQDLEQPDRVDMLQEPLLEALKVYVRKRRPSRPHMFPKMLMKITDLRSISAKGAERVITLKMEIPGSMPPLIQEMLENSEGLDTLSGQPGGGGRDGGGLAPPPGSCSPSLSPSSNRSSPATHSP
# [2] = system: definitive endoderm cells derived from human pluripotent stem cells (hES line SA121); assay: Differentiation of definitive endoderm to pancreatic endoderm, gene expression analysis (Nanostring) on PE10; type: cell-based; conditions: treatment on PE2-3, vs standard protocol
# Experimental: (§1) Human embryonic stem (hES) cells line SA121 (Cellectis) are expanded in DEF-CS culture medium (Takara BIO Europe) in fibronectin (Sigma) coated culture flasks (Corning) with 30 ng/ml bFGF (Peprotech) and 10 ng/ml noggin (Peprotech). Cells are single cell passaged with 10 μM Rock inhibitor Y-27632 (Sigma #Y0503) and seeded in shaker flasks or bioreactors (DASBOX, DASGIP, Eppendorf) at a density of 0.5-1 mio/ml and allowed to form clusters under constant stirring conditions.
# (§2) After 1-3 days in DEF-CS medium with daily medium change, the clusters are differentiated to DE as described in WO2012/175633 (which is incorporated herein by reference in its entirety). The cell clusters are washed once in RPM11640 (Gibco #61870) and treated with 2-7 μM CHIR99021 (Axon #1386) in RPM11640. After 24 hours the cells were washed with RPM11640 and treated with 25-100 ng/ml Activin A (Peprotech #120-14E) and 2% B27 (Invitrogen #17504-044) in RPM11640 for 3 days with medium change every 24 or 48 hours. Cells are maintained at 37° C. and 5% CO2 in a humidified shaker incubator (Infors) during the differentiation to DE, or in a bioreactor system (DASBOX, DASGIP, Eppendorf).
# (§3) Medium was changed daily or every other day. At the end of PE differentiation clusters were analysed by flow cytometry or gene expression analysis (Nanostring). 10 μM AGN193109 (Tocris 5758) was added to the LDN stage of PE differentiation, whereas the remaining part of the protocol was unchanged.
# [3] = biological target: T2, RARγ (Homo sapiens, UniProt P13631); conditions: RARγ transfected CV-1 cells; equal molar AGN 193109 against ATRA; cited from earlier work
# T2 sequence (P13631 1-454): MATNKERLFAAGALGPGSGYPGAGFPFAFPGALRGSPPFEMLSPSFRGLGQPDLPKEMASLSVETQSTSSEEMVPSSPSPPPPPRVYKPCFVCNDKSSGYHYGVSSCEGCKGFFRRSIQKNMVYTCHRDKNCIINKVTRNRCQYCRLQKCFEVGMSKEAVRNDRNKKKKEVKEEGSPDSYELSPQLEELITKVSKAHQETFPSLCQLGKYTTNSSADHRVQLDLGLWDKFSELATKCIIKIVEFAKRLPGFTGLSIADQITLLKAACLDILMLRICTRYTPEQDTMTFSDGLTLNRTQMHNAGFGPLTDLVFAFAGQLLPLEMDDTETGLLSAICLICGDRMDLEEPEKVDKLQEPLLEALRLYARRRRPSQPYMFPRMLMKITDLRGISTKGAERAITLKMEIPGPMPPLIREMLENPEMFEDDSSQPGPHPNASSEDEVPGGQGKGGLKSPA
# [4] = system: differentiated cells at the beta cell stage; assay: Transplantation of differentiated cells at the beta cell stage, immunohistochemistry and quantitative image analysis; type: in vivo; conditions: 8 weeks after transplantation
# [5] = system: definitive endoderm cells derived from human pluripotent stem cells (hES line SA121); assay: Differentiation of definitive endoderm to pancreatic endoderm, flow cytometry (FACS) at PE stage; type: cell-based
# Experimental: as §1, §2, §3
# [6] = system: definitive endoderm cells derived from human pluripotent stem cells (hES line SA121); assay: as above; type: cell-based; conditions: PE10
# [7] = biological target: T1, RARα; conditions: RARα transfected CV-1 cells; equal molar AGN 193109 against ATRA; cited from earlier work
# [8] = system: human ES cell or human iPS cell derived PE clusters; assay: Further differentiation of PE clusters to beta cell like cells, flow cytometry on Cpep/Nkx6.1 and glucagon; type: cell-based; conditions: for Cpep/Nkx6.1 double positive: extended in vitro culture
# Text: The human ES cell or human iPS cell derived PE clusters are washed and further differentiated to endocrine progenitors (EP) and beta cell like cells (BC), using protocols for endocrine and beta cell induction, as described in WO2015/028614, WO2017/144695 and WO/2019/048690, which are all incorporated herein by reference in their entirety.
# At the end of BC differentiation clusters were sampled, dissociated to single cells with TrypLE-Select (Gibco 12563-011), fixed in 10% formalin, stained with Cpep/Nkx6.1 and glucagon and analyzed by flow cytometry.
# [9] = biological target: T3, RARβ (Homo sapiens, UniProt P10826); conditions: RARβ transfected CV-1 cells; equal molar AGN 193109 against ATRA; cited from earlier work
# T3 sequence (P10826 1-455): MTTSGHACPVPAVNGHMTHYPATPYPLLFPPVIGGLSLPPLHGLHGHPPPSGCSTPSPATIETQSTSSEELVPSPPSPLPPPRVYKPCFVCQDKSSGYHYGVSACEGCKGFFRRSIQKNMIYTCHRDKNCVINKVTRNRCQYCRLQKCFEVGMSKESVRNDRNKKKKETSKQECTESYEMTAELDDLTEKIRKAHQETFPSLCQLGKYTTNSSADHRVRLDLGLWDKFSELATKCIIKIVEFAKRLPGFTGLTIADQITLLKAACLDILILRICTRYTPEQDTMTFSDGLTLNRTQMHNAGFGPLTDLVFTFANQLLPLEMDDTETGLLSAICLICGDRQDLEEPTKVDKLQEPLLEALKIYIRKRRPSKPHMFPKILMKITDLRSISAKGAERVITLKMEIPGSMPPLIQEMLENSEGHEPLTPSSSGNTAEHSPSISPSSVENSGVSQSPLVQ
# [10] = biological target: T2, RARγ; conditions: cited from earlier work
# [11] = biological target: T3, RARβ; conditions: cited from earlier work
# [12] = treatment on PE2-3, PE10, standard protocol 52%, FIG. 4
compound,measurement,setting,value
Cc1ccc(C2=CCC(C)(C)c3ccc(C#Cc4ccc(C(=O)O)cc4)cc32)cc1 [AGN193109],Kd,[1],2 nM
same,CPA1 expression,[2],increase
same,DLK1 expression,[2],increase
same,NeuroD expression,[2],lower expression
same,Ngn3 expression,[2],lower expression
same,PTF1A expression,[2],increase
same,antagonism of ATRA-induced transcription,[3],100%
same,beta to alpha cell ratio (fraction of insulin positive cells relative to glucagon positive cells),[4],higher
same,Pdx1/Nkx6.1 double positive,"[5]; 10 μM for last 2 days of LDN stage (PE2-3), PE10, standard condition around 40%, FIGS. 1A,B",at least 70%
same,Pdx1/Nkx6.1 double negative cells,"[5]; 10 μM on PE2-3, PE10",less than 10%
same,effect on PE induction (Pdx1/Nkx6.1 double positive) of extending addition from 2 to 4 days in the LDN stage,"[5]; 10 μM, PE10, FIG. 6A",without any negative effect
same,Pdx1/Nkx6.1 double positive,"[5]; 1 L bioreactors (DASgip, Eppendorf), 10 μM on PE2-3, PE10, standard protocol 58.4%, not run in parallel",82.2%
same,DLK1 expressing pancreatic endoderm (flow cytometry),"[5]; added on PE2-3, PE11, standard 13%",31%
same,Pdx1/Nkx6.1 double positive cells,"[5]; rescue of suboptimal PE differentiation, standard 20%, PE10",75%
same,percentage of Nkx2.2 positive cells at the PE stage,"[5]; treatment on PE2-3, PE10, control 2.9%",less than 1%
same,Pdx1/Nkx6.1 double positive,[5]; [12],76.9%
same,Pdx1-only positive cells with increasing concentrations,"[6]; 1, 3 and 10 μM on PE2-3, FIG. 5A",decrease
same,effect of increasing the concentration from 10 μM to 20 μM on PE induction,"[6]; PE2-3, FIG. 5B",no additional effect
same,dose dependence of effect on Pdx1/Nkx6.1 double positive cells,[6]; range from 0.5 μM to 20 μM on PE2-3,dose-responsive
same,antagonism of ATRA-induced transcription,[7],85%
same,Cpep/Nkx6.1 double positive beta like cells,"[8]; AGN193109 in LDN stage (PE2-3), BC6-9, standard around 35%",around 50%
same,Glucagon positive cells,"[8]; AGN193109 in LDN stage, BC stage, FIG. 7B",not accompanied by an increase
same,Cpep/Nkx6.1 double positive,"[8]; BC day 6, standard protocol 53%",59%
same,Cpep/Nkx6.1 double positive,"[8]; BC day 13, standard protocol 27%",57%
same,antagonism of ATRA-induced transcription,[9],62%
same,Kd,[10],2 nM
same,Kd,[11],2 nM
AM580,DLK1 expression,[2],marked down regulation
same,NeuroD expression,[2],marked increase
same,Ngn3 expression,[2],marked increase
same,Nkx6.1 expression,[2],marked down regulation
same,PTF1A expression,[2],marked down regulation
same,Pdx1/Nkx6.1 double positive,[5]; [12],~ 14%
